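Method: 48-hour compound exposure of cells in 96-well plates, five concentrations, linear interpolation of endpoints. GI50: concentration for 50% inhibition of growth.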 Activity calls are given as the source filed them. Cut-off read from the data, not from the text of the source: active = GI50 up to about 1.1 µM and inactive = higher.

Assay in all cases: inhibition of tumour cell growth, NCI panel, 48 h
Assay [1] relates to DU-145.
Assay [2] concerns OVCAR-5.
In assay [3] the test system is NCI-H226.
In assay [4] the test system is SF-268.
Assay [5] relates to TK-10.
Assay [6] concerns BT-549.
In assay [7] the test system is A549.
The test system of assay [8] is SN12C.
Assay [9] deals with HL-60.
Assay [10] concerns SK-MEL-5.
The subject of assay [11] is HCT-15.
Assay [12] deals with MDA-MB-231.
Assay [13] deals with U-251.
The test system of assay [14] is KM12.
Assay [15] has as its system IGROV-1.
In assay [16] the test system is SK-MEL-28.
Assay [17] relates to MDA-MB-435.
The test system of assay [18] is SR.
The test system of assay [19] is A498.
The subject of assay [20] is Malme-3M.

As to `O=C1Oc2ccccc2C(=O)/C1=C/NC(=S)NCCc1ccccc1`, the GI50 is 23.4 µM (inactive) in [1]; 68.4 µM (inactive) in [2]; > 100 µM (inactive) in assay [3]; 77.1 µM (inactive) in assay [4]; 32.1 µM (inactive) in [5]; 20.2 µM (inactive) in assay [6]. Besides, the GI50 was 49 µM (inactive) in assay [7]; 40 µM (inactive) in assay [8]; 1.85 µM (inactive) in [9]; 45.7 µM (inactive) in assay [10]; 34.6 µM in assay [11]; 37.8 µM (inactive) in [12]. Further, the GI50 in assay [13] was 53.6 µM (inactive); in assay [14], 37.2 µM (inactive); in assay [15], 27 µM (inactive); in assay [16] it was > 100 µM (inactive); in assay [17], 48.6 µM (inactive); in assay [18] it was 14.6 µM (inactive).

For `O=C1N[C@@H]2c3c(csc3Br)C(=O)[C@@H]2O1`, the GI50 in assay [1] is 39.1 µM (inactive); in assay [2], 74 µM (inactive); in assay [4], 27 µM (inactive); in assay [5] it was 27.4 µM (inactive); in [6] it was 38.5 µM (inactive); in assay [7], 51.9 µM (inactive). Further, the GI50 in assay [8] was 42.5 µM (inactive); in assay [9], 24.3 µM (inactive); in [19], > 100 µM (inactive); in [10], > 100 µM (inactive); in assay [11] it was 31.5 µM; in [12], 43.7 µM (inactive). The GI50 in assay [13] was 24.2 µM (inactive); in [14], 47 µM (inactive); in [15] it was 26.5 µM (inactive); in [16], 33.3 µM (inactive); in assay [17] it was 19.9 µM (inactive); in [20] it was 32 µM (inactive). In addition, in assay [18], the GI50 is 26.1 µM (inactive).

Take `CCCCOC(=O)Nc1ccc(S(=O)(=O)Nc2ccccc2Cl)cc1`: the GI50 in assay [1] is 30.3 µM (inactive); in [2] it was 25.8 µM (inactive); in [4], 16.9 µM (inactive); in assay [5], 21.6 µM (inactive); in assay [6], 22.5 µM (inactive); in [7], 32.5 µM (inactive). Also, the GI50 is 21.2 µM (inactive) in assay [8]; 16.9 µM (inactive) in assay [9]; 12.8 µM (inactive) in assay [19]; 12 µM (inactive) in assay [10]; 21.3 µM in assay [11]; 21 µM (inactive) in [12]. Also, the GI50 in assay [13] was 17.5 µM (inactive); in [14], 24 µM (inactive); in [15], 21.7 µM (inactive); in assay [16], 19.6 µM (inactive); in assay [17], 18.8 µM (inactive); in [20] it was 24.8 µM (inactive). Further, the GI50 in assay [18] was 4.04 µM (inactive).

As for `O=C(O)c1ccc(C2=Nc3cccc4cccc(c34)N2)cc1`, the GI50 in assay [1], in assay [3], in assay [4], in assay [5], in assay [6] and in assay [7] was > 100 µM (inactive) each time. The GI50 in [8] was > 100 µM (inactive); in assay [9], 19.6 µM (inactive); in [10] it was > 100 µM (inactive); in assay [11], above 100 µM; in assay [12], > 100 µM (inactive); in assay [13] it was > 100 µM (inactive). For the same molecule, the GI50 is > 100 µM (inactive) in assay [14]; > 100 µM (inactive) in assay [15]; > 100 µM (inactive) in assay [16]; > 100 µM (inactive) in assay [17]; > 100 µM (inactive) in assay [20]; 30.6 µM (inactive) in assay [18].

`COc1ccc(-c2c(C#N)c(S)n(NS(=O)(=O)c3ccccc3)c(=O)c2C#N)cc1`: the GI50 in assay [1] was > 100 µM (inactive); in assay [2] it was > 100 µM (inactive); in [3], > 100 µM (inactive); in assay [4] it was 62.7 µM (inactive); in [5], 29.3 µM (inactive); in assay [6], 14.3 µM (inactive). Besides, the GI50 in assay [7] is 56.2 µM (inactive); in [8], 46.5 µM (inactive); in assay [9], 47.1 µM (inactive); in assay [10], 36.7 µM (inactive); in [11], 40.6 µM; in [12], 88.9 µM (inactive). For the same molecule, the GI50 was 40.4 µM (inactive) in assay [13]; 70.6 µM (inactive) in [14]; 31.9 µM (inactive) in [15]; > 100 µM (inactive) in [16]; 34.3 µM (inactive) in [17]; > 96.6 µM (inactive) in [20]. Besides, the GI50 in assay [18] is 23.1 µM (inactive).

As to `O=C1CC(=O)NC(NN2C(=O)/C(=C/C(=O)c3ccco3)N=C2c2ccccc2)=N1`, the GI50 in assay [1] was > 100 µM (inactive); in assay [2] it was > 100 µM (inactive); in assay [3], > 100 µM (inactive); in [4], > 100 µM (inactive); in assay [5] it was > 100 µM (inactive); in assay [6], 36.6 µM (inactive). Also, the GI50 in [7] was > 100 µM (inactive); in assay [8], > 100 µM (inactive); in assay [19] it was > 100 µM (inactive); in assay [11] it was above 100 µM; in assay [12], > 100 µM (inactive); in [13] it was 47.5 µM (inactive). The GI50 in assay [14] is 30.5 µM (inactive); in [15] it was 43.3 µM (inactive); in assay [16] it was > 100 µM (inactive); in [17], 63.7 µM (inactive); in assay [20], 7 µM (inactive); in assay [18], 14.6 µM (inactive).

With `COC(=O)Nc1nc2cc(S(=O)(=O)n3nnc4ccccc43)ccc2[nH]1`, the GI50 in assay [1] is > 100 µM (inactive); in [2], > 100 µM (inactive); in assay [4] it was 21.5 µM (inactive); in assay [6], 17.6 µM (inactive); in [7], > 100 µM (inactive); in assay [8], > 100 µM (inactive). For the same molecule, the GI50 in assay [9] was 66.2 µM (inactive); in [19], 57 µM (inactive); in [10], > 100 µM (inactive); in assay [11], above 100 µM; in [12], 43.5 µM (inactive); in [13] it was 26.6 µM (inactive). The GI50 in [14] is > 100 µM (inactive); in assay [15], 31.3 µM (inactive); in assay [16], > 100 µM (inactive); in assay [17] it was > 100 µM (inactive); in assay [20] it was 30.5 µM (inactive); in assay [18], 75.2 µM (inactive).

Consider `Cc1ccc(C(=O)O)c(CC2Cc3c(C)cccc3C2=O)c1` (stereo unspecified), for which the GI50 in assay [1], in assay [2], in assay [3], in assay [4], in assay [5] and in assay [6] was > 100 µM (inactive) throughout. Besides, the GI50 in assay [7] was > 100 µM (inactive); in assay [8], > 100 µM (inactive); in assay [9], > 100 µM (inactive); in [10] it was > 100 µM (inactive); in assay [11], above 100 µM; in [12] it was > 100 µM (inactive). In addition, the GI50 in [13], in [14], in [15], in assay [16], in assay [17] and in assay [20] was > 100 µM (inactive) each time. Besides, the GI50 in [18] was > 100 µM (inactive).

With `COc1ccc(-c2nc(-c3cc4c(ccc5ccccc54)oc3=O)cs2)cc1`, the GI50 in assay [1] is > 100 µM (inactive); in assay [2] it was > 100 µM (inactive); in assay [3], 31 µM (inactive); in [4], > 100 µM (inactive); in assay [5], > 100 µM (inactive); in [6] it was > 100 µM (inactive). For the same molecule, the GI50 in assay [7] was > 100 µM (inactive); in [8], > 100 µM (inactive); in assay [9] it was > 100 µM (inactive); in assay [10], > 100 µM (inactive); in assay [11], above 100 µM; in assay [12], 73.6 µM (inactive). Further, the GI50 in [13] is > 10 µM (inactive); in [14] it was > 100 µM (inactive); in assay [15], > 100 µM (inactive); in [16], > 100 µM (inactive); in assay [17], > 100 µM (inactive); in assay [18], > 100 µM (inactive).

For the molecule `Cc1cc(C#N)c(Nc2c(C)cccc2[N+](=O)[O-])s1`, the GI50 in assay [1] was 36.2 µM (inactive); in assay [2], 12.4 µM (inactive); in assay [3], > 100 µM (inactive); in assay [4] it was 28 µM (inactive); in assay [6] it was 24.3 µM (inactive); in [7] it was 46.3 µM (inactive). The GI50 is > 100 µM (inactive) in assay [8]; 66.7 µM (inactive) in assay [19]; 50 µM in [11]; 24.7 µM (inactive) in [12]; 35.7 µM (inactive) in assay [13]; > 100 µM (inactive) in assay [14]. The GI50 is 76.9 µM (inactive) in [16], 61 µM (inactive) in assay [17], 40.2 µM (inactive) in assay [20] and 49.7 µM (inactive) in assay [18].

In the case of `CCN1CCN(c2ccc(Nc3ccnc4ccc5c(nnn5C)c34)cc2)CC1`, the GI50 is 5.25 µM (inactive) in [1]; 9.16 µM (inactive) in assay [2]; 6.46 µM (inactive) in assay [4]; 15.3 µM (inactive) in assay [5]; 17.3 µM (inactive) in assay [6]; 7.83 µM (inactive) in assay [7]. For the same molecule, the GI50 in assay [8] was 3.53 µM (inactive); in assay [9], 4.94 µM (inactive); in assay [19] it was 14.8 µM (inactive); in [10], 11 µM (inactive); in assay [11], 3.95 µM; in assay [12], 8.55 µM (inactive). For the same molecule, the GI50 in assay [13] was 5.69 µM (inactive); in [14], 3.51 µM (inactive); in [15] it was 12.9 µM (inactive); in assay [16], 11.1 µM (inactive); in assay [17], 5.46 µM (inactive); in assay [20] it was 5.89 µM (inactive). For the same molecule, in assay [18], the GI50 is 2.51 µM (inactive).

(Values after ChEMBL document CHEMBL1201862, “PubChem BioAssay data set” (2004).)
